In US6509344B1, “Indenoisoquinolines as antineoplastic agents” (The United States of America as represented by the …, priority 1998, dated 2003):

Assays:
supercoiled SV40 DNA = test: SV40 DNA unwinding assay; type: biochemical; settings: supercoiled DNA in the presence of topoisomerase I
Description: With some of the compounds (e.g. 27), the activity seemed to increase initially as the concentration was increased, but then it declined at higher concentrations. […] The unwinding assay using supercoiled DNA in the presence of topoisomerase I is a simple procedure to detect DNA intercalation.
After electrophoresis, DNA bands were stained in 10 μg/mL of ethidium bromide and visualized by transillumination with UV light (300 nm).

OVCAR-3 = test: NCI human cancer cell line screen (COMPARE screening), Ovarian OVCAR-3; type: cell-based; settings: Homo sapiens; OVCAR-3; concentration causing 50% growth inhibition; read-out: Cytotoxicity (G150 in μM) Ovarian OVCAR-3
Procedure, shortened: (§1)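 Human cancer cell panel (NCI, ~55 lines, diverse origins) exposed to compound in vitro. Antiproliferative cytotoxicity then recorded line by line.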

DU-145 = test: NCI human cancer cell line screen (COMPARE screening), Prostate DU-145; type: cell-based; settings: Homo sapiens; DU-145; concentration causing 50% growth inhibition; read-out: Cytotoxicity (G150 in μM) Prostate DU-145
Procedure, shortened: as §1

human topoisomerase II = test: Topoisomerase II-mediated DNA cleavage assay (5'-end-labeled human c-myc DNA); type: biochemical
[1] = system: approximately 55 different cancer cell lines of diverse tumor origins; test: NCI screen mean graph midpoint over all cell lines tested; type: cell-based, human
[2] = molecular target: T1, topoisomerase I cleavage complexes (Homo sapiens, UniProt P11387); test: Salt reversal of topoisomerase I cleavage complexes; type: biochemical; settings: increasing salt concentration
T1 sequence (P11387 1-765): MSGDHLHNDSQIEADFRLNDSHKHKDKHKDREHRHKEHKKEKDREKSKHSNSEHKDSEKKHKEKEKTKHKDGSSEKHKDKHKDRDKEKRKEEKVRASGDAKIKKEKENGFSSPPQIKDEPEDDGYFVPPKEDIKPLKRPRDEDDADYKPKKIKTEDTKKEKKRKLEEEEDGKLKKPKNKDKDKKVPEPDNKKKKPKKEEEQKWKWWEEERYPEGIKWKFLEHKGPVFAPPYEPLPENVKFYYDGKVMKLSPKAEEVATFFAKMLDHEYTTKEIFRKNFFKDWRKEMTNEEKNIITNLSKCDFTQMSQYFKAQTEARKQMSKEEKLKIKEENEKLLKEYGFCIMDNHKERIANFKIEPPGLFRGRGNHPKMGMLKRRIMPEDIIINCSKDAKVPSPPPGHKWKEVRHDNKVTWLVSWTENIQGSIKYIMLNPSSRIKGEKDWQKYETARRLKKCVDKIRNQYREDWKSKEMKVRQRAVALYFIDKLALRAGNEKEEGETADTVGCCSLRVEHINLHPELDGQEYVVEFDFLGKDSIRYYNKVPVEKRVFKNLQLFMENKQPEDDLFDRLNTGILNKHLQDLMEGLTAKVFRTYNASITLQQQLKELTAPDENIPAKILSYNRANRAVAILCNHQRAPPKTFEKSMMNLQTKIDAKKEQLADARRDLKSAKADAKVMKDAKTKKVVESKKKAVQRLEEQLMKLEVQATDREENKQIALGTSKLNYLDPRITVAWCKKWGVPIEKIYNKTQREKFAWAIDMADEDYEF

HCT-116 = test: NCI human cancer cell line screen (COMPARE screening), Colon HCT-116; type: cell-based; settings: Homo sapiens; HCT-116; concentration causing 50% growth inhibition; read-out: Cytotoxicity (G150 in μM) Colon HCT-116
Procedure, shortened: as §1

topoisomerase I = molecular target: T2, topoisomerase I (Homo sapiens, UniProt P11387); test: Topoisomerase I-mediated DNA cleavage assay (3'-end-labeled 161 bp pBluescript SK(-) fragment); type: biochemical
T2 sequence (P11387 1-765): T1 sequence (P11387 1-765)
Procedure, shortened: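 A 3′-end ³²P-labeled 161 bp Pvu II/Hind III pBluescript SK(−) fragment was incubated with topoisomerase I and drug for 15 min at 30° C, then stopped with 0.5% SDS. Cleavage products were resolved on a denaturing 16% polyacrylamide/7 M urea gel at 51° C and read by phosphorimaging.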

HOP-62 = test: NCI human cancer cell line screen (COMPARE screening), Lung HOP-62; type: cell-based; settings: Homo sapiens; HOP-62; concentration causing 50% growth inhibition; read-out: Cytotoxicity (G150 in μM) Lung HOP-62
Procedure, shortened: as §1

UACC-62 = test: NCI human cancer cell line screen (COMPARE screening), Melanoma UACC-62; type: cell-based; settings: Homo sapiens; UACC-62; concentration causing 50% growth inhibition; read-out: Cytotoxicity (G150 in μM) Melanoma UACC-62
Procedure, shortened: as §1

MDA-MB-435 = test: NCI human cancer cell line screen (COMPARE screening), Breast MDA-MB-435; type: cell-based; settings: Homo sapiens; MDA-MB-435; concentration causing 50% growth inhibition; read-out: Cytotoxicity (G150 in μM) Breast MDA-MB-435
Procedure, shortened: as §1

melting point: 304 to 308 °C
induction of topoisomerase II cleavage complexes (human topoisomerase II): no effect
reversal of induced cleavage sites by salt treatment [2]: reversed by salt treatment
activity in the topoisomerase I cleavage assay (in words) (topoisomerase I): rival the topoisomerase activity of 1
Compound: COc1cc2c3c(n(CCCCO)c(=O)c2cc1OC)-c1cc2c(cc1C3=O)OCO2 [Compound 19a, 5,6-Dihydro-5,11-diketo-6-(4-hydroxybut-1-yl)-2,3-dimethoxy-8,9-methylenedioxy-(11H)indeno[1,2-c]isoquinoline]
DNA unwinding (supercoiled SV40 DNA): does not appear to unwind DNA
IC50 (OVCAR-3): 3.7 µM
IC50 (DU-145): 0.36 µM
IC50 ([1]; Homo sapiens, average GI50 for all cell lines tested (approximately 55), values outside test range taken as 10^-8 or 10^-4 molar, read-out: MGM (mean graph midpoint)): 3.2 µM
cytotoxicity (MGM) relative to lead compound 1 ([1]; comparison in words): lower MGM than the lead compound 1
IC50 (HCT-116): 1.4 µM
Top 1 Cleavage (topoisomerase I; relative to the activity of 1 μM camptothecin): + (those compounds having between 20% and 50% of the activity of 1 μM camptothecin)
IC50 (HOP-62): 0.7 µM
IC50 (UACC-62): 0.99 µM
IC50 (MDA-MB-435): 10 µM
